Laboratory results reported in patent publication US11629160B2, “Corrole-based frameworks and methods of use thereof” (University of South Florida, priority 2019, dated 2023).

Experiment: Singlet oxygen (1O2) generation, DPBF scavenger under 635 nm laser
Conditions: 50 μg in 1.0 ml NMP, DPBF 10 μM, 635 nm laser 0.18 W/cm^2, absorbance at 415 nm
Experimental: Singlet Oxygen (^1O2) Generation. In a typical experiment, 50 μg of the monomer or Corrole-COF materials was suspended in 1 mL of N-methylpyrrolidone (NMP) (equilibrated with air at RT) containing 10 μM of singlet oxygen sensor 1,3-diphenylisobenzofuran (DPBF). The mixture solutions were irradiated under a 635 nm laser (0.18 W cm^−2). The characteristic UV-Vis absorption spectra of the DPBF were measured at 415 nm to determine the generation of ^1O2 every 1 min, in which the UV-Vis absorption spectra of samples were collected using a UV-1800 spectrophotometer (Shimadzu, Japan) with a 0.3 cm quartz cuvette at room temperature.
TPAPC-COF was evaluated for its ability to generate ^1O2 (FIGS. 8A and 7B). The photo-generating ^1O2 ability of TPAPC-COF under a 635 nm laser (0.18 W/cm^2) irradiation was investigated by using 1,3-diphenylisobenzofuran (DPBF) as a scavenger, and the process was monitored by time-dependent electronic absorption spectroscopy.

degradation efficiency (conversion) of DPBF: 56%
Structure (SMILES): Nc1ccc(-c2c3nc(c4ccc([nH]4)c(-c4ccc(N)cc4)c4ccc([nH]4)c(-c4ccc(N)cc4)c4ccc2[nH]4)C=C3)cc1 [H3TPAPC, 5,10,15-tris(p-aminophenyl)corrole]
